According to article PMC9646721, “Alkaloid binding to opium poppy major latex proteins triggers structural modification and functional aggregation” (Nature Communications, 2022):
≈ marks a conversion by molar mass, not a printed value. Where “and” joins values, the source holds several entries; their conditions need not be identical. Identical values can stand only once.

Columns and labels:
NISO [1] = target: T1, NISO (Papaver somniferum, UniProt P0DYP9); experiment: ANS displacement assay; details: for IC50: IC50, NISO; for IC50 / Log10IC50: 10 µM protein and 10 µM ANS, CBS pH 5.5; for Log10IC50 / Hill Slope: NISO; for Hill Slope: ANS displacement dose-response fit
T1 sequence (P0DYP9 entry or part of it): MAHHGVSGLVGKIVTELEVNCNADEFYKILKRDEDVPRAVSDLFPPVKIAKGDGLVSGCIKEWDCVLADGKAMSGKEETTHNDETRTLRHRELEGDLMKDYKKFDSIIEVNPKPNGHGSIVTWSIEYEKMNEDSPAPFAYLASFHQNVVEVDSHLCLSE
Method: (§5) 8-anilino-1-naphthalenesulfonic acid (ANS) fluorescence binding curves and the binding-induced reduction in ANS fluorescence resulting from competition with tested ligands across a range of concentration facilitated the measurement of IC50 and an estimate of Kd values using the binding models and procedures described previously[70]. […] ANS was dissolved in dimethylsufoxide at a concentration of 20 mM, stored at −20 °C until dilution and protected from exposure to light. […] 40 µl of the ANS solution and 40 µl of each MLP/PR10 protein solution were combined to 80 µl final reaction volumes, which were incubated at 21 °C for 10 min to allow equilibration of binding. Triplicate 18-µl aliquots were withdrawn from each 80 µl reaction, transferred to optically clear PCR tubes (Diamed, Canada) and ANS fluorescence was measured following an additional 3-min incubation at 30 °C using a Qiagen Rotor-gene Q 6-plex with excitation and emission filters of 365 ± 20 nm and 460 ± 20 nm, respectively. An identical reaction series whereby protein was omitted from the mixtures was measured under identical conditions and trace fluorescence was subtracted from each MLP/PR10 protein-containing sample. Each data set was scaled so that the maximum observed fluorescence corresponded to 100% and individual data points were plotted, and a rectangular hyperbolic ligand binding function was fit, using least-squares analysis (Prism 5 software, Graphpad, USA). Experiments were repeated at least twice with independently prepared protein.
(§6) Displacement of ANS is associated with reduced fluorescence. […] Briefly, 40 µl of 20 µM ANS and individual MLP/ PR10 protein solutions were combined in CBS buffer, pH 5.5, incubated at 21 °C for 5 min, mixed with 40 µl of separate 0 to 6 mM BIA solutions in CBS buffer, pH 5.5, and the 80 µl reactions were subsequently incubated for 10 min at 21 °C. Fluorescence was measured as described above, including subtraction of any fluorescence in a blank series whereby protein was omitted. […] Each experiment was repeated at least twice with independently prepared MLP/PR10 proteins and BIA ligand.

NISO [2] = target: T1, NISO; experiment: Isothermal titration calorimetry; assay type: binding; design: made in house; host or cells: E. coli ArcticExpress (DE3); details: ITC, PBS pH 7.4, 25 °C
Method: (§1) ITC experiments were conducted using a Microcal VP instrument (Malvern Pananalytical, Malvern, UK). […] Eluates were twice dialysed to equilibrium (i.e., 10–12 h at 4 °C) against a 1000-fold (2–4 L) volume of PBS, pH 7.4 (25 mM sodium phosphate, 50 mM NaCl) or CBS, pH 5.5, resulting in a theoretical million-fold dilution of undesired small molecules (e.g., <0.2 µM imidazole). Dialysis was carried out in boiled Spectra/Por 1 6–8 kDa MWCO 0.32 ml/cm (Spectrum Labs, USA) tubing thoroughly washed with either buffer before use. The second 1000-fold volume of dialysis buffer was filtered and degassed using a reusable bottle-top filtration apparatus (Nalgene, USA) with disposable […] cellulose filters (VWR, Canada) prior to storage at 4 °C. Ligands were dissolved in the filtered dialysis buffer at 21 °C for approximately one hour, and any insoluble material was removed by repeated centrifugation at 21,000 × g for 10 min. […] Prior to ITC, which was initiated immediately following dialysis, the protein solutions were centrifuged at 17,000 × g and 4 °C for 30 min. Any precipitate was separated from the remaining soluble protein fraction which was quantified by absorption at A280nm and diluted with filtered dialysis buffer immediately before use.
(§2) Thermograms were recorded at 25 °C, with a reference power of 10 (dpu/sec) and monitoring of 30 injections of 9 µl BIA ligand solutions into a sample cell containing 1.4 ml of an MLP/PR10 protein solution, with 300 seconds between injections. […] To ensure that we report only the heat of reaction for each interaction, independent titrations of ligand into buffer, and buffer into protein solutions, were used to calculate and then subtract heats of dilution. After subtraction, binding isotherms were analyzed in MicroCal Origin 7 (MicroCal, USA) by fitting a single-site binding model using non-linear least squares regression analysis repeated until convergence. […] Each ITC experiment was repeated 2 to 4 times.

THS2 [3] = target: T2, THS2 (Papaver somniferum, UniProt A0A2U9GGW3); experiment: Isothermal titration calorimetry; assay type: binding; design: made in house; host or cells: E. coli ArcticExpress (DE3); details: ITC, PBS pH 7.4, 25 °C
T2 sequence (A0A2U9GGW3 whole entry): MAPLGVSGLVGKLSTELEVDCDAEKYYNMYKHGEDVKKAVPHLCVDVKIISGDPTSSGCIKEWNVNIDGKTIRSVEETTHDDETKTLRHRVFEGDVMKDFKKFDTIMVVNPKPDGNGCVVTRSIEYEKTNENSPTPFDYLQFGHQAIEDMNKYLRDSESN
Method: as §1, §2

PR10-12 [4] = experiment: ANS displacement assay; assay type: binding, Papaver somniferum; details: for IC50 / Log10IC50: 10 µM protein and 10 µM ANS, CBS pH 5.5; for Kd: from average IC50 and PR10-ANS Kd, competitive inhibition assumed, read-out: Estimated Kd
Source text: (§3) Eluates were store separately on ice.
(§4) Displacement of ANS is associated with reduced fluorescence.

MLP2 = experiment: ANS displacement assay; assay type: binding, Papaver somniferum; details: for IC50 / Log10IC50: 10 µM protein and 10 µM ANS, CBS pH 5.5; for Kd: from average IC50 and PR10-ANS Kd, competitive inhibition assumed, read-out: Estimated Kd
Source text: as §3, §4

MLP15 [5] = target: T3, MLP15 (Papaver somniferum, UniProt P19825); experiment: ANS displacement assay; details: for IC50: IC50, MLP15; for IC50 / Log10IC50: 10 µM protein and 10 µM ANS, CBS pH 5.5; for Log10IC50 / Hill Slope: MLP15; for Hill Slope: ANS displacement dose-response fit
T3 sequence (P19825 1-159): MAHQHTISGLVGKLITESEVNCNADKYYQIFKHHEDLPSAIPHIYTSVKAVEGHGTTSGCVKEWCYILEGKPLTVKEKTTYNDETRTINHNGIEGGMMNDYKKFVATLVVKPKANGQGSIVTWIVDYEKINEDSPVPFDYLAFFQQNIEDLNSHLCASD
Method: as §5, §6

PR10-10 = target: T4, PR10-10 (Papaver somniferum, UniProt A0A9Y2YA81); experiment: ANS displacement assay; assay type: binding; details: ANS displacement dose-response fit
T4 sequence (A0A9Y2YA81 1-158): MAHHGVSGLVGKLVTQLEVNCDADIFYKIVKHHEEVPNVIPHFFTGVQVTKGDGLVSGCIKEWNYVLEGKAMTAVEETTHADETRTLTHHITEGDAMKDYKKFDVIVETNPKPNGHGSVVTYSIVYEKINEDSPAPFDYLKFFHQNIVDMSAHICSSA
Source text: as §3, §4

PR10-12 [6] = experiment: Isothermal titration calorimetry; assay type: binding, Papaver somniferum; details: ITC, PBS pH 7.4, 25 °C, single-site model
Method: ITC experiments were conducted using a Microcal VP instrument (Malvern Pananalytical, Malvern, UK). Recombinant MLP/PR10 protein preparation involving production in Escherichia coli followed by cobalt-affinity chromatography was optimized to yield relatively high purity in a single step as determined by SDS-PAGE and colloidal Coomassie blue silver staining. The less than 48 h decrease in atmospheric oxygen exposure generated high-quality proteins with reduced precipitate. […] Eluates were twice dialysed to equilibrium (i.e., 10–12 h at 4 °C) against a 1000-fold (2–4 L) volume of PBS, pH 7.4 (25 mM sodium phosphate, 50 mM NaCl) or CBS, pH 5.5, resulting in a theoretical million-fold dilution of undesired small molecules (e.g., <0.2 µM imidazole). Dialysis was carried out in boiled Spectra/Por 1 6–8 kDa MWCO 0.32 ml/cm (Spectrum Labs, USA) tubing thoroughly washed with either buffer before use. The second 1000-fold volume of dialysis buffer was filtered and degassed using a reusable bottle-top filtration apparatus (Nalgene, USA) with disposable […] cellulose filters (VWR, Canada) prior to storage at 4 °C. Ligands were dissolved in the filtered dialysis buffer at 21 °C for approximately one hour, and any insoluble material was removed by repeated centrifugation at 21,000 × g for 10 min. No change in pH occurred following substrate addition. Prior to ITC, which was initiated immediately following dialysis, the protein solutions were centrifuged at 17,000 × g and 4 °C for 30 min. Any precipitate was separated from the remaining soluble protein fraction which was quantified by absorption at A280nm and diluted with filtered dialysis buffer immediately before use.
as §2, with “injections. Protein concentrations varied from 10 to 150 µM to achieve an optimal C value and curve shape valid for parameter calculation.” for “injections.”

THS2 [7] = target: T2, THS2; experiment: ANS displacement assay
Method: as §5, §6

PR10-4 = experiment: ANS displacement assay; assay type: binding, Papaver somniferum
Source text: as §3, §4

[8] = Ligand solubility threshold in ITC buffer; assay type: physicochemical; details: filtered dialysis buffer (CBS, 21 °C, aqueous buffer, thermodynamic from solid); pH 5.5, ITC buffer
Method: ITC experiments were conducted using a Microcal VP instrument (Malvern Pananalytical, Malvern, UK). Recombinant MLP/PR10 protein preparation involving production in Escherichia coli followed by cobalt-affinity chromatography was optimized to yield relatively high purity in a single step as determined by SDS-PAGE and colloidal Coomassie blue silver staining. The less than 48 h decrease in atmospheric oxygen exposure generated high-quality proteins with reduced precipitate. […] Eluates were twice dialysed to equilibrium (i.e., 10–12 h at 4 °C) against a 1000-fold (2–4 L) volume of PBS, pH 7.4 (25 mM sodium phosphate, 50 mM NaCl) or CBS, pH 5.5, resulting in a theoretical million-fold dilution of undesired small molecules (e.g., <0.2 µM imidazole). […] Any precipitate was separated from the remaining soluble protein fraction which was quantified by absorption at A280nm and diluted with filtered dialysis buffer immediately before use.
Thermograms were recorded at 25 °C, with a reference power of 10 (dpu/sec) and monitoring of 30 injections of 9 µl BIA ligand solutions into a sample cell containing 1.4 ml of an MLP/PR10 protein solution, with 300 seconds between injections. […] After subtraction, binding isotherms were analyzed in MicroCal Origin 7 (MicroCal, USA) by fitting a single-site binding model using non-linear least squares regression analysis repeated until convergence. […]

MLP15 [9] = target: T3, MLP15; experiment: Isothermal titration calorimetry; assay type: binding; design: made in house; host or cells: E. coli ArcticExpress (DE3); details: ITC thermogram, injections into buffer and MLP15
Method: ITC experiments were conducted using a Microcal VP instrument (Malvern Pananalytical, Malvern, UK). […] Dialysis was carried out in boiled Spectra/Por 1 6–8 kDa MWCO 0.32 ml/cm (Spectrum Labs, USA) tubing thoroughly washed with either buffer before use. The second 1000-fold volume of dialysis buffer was filtered and degassed using a reusable bottle-top filtration apparatus (Nalgene, USA) with disposable […] cellulose filters (VWR, Canada) prior to storage at 4 °C. Ligands were dissolved in the filtered dialysis buffer at 21 °C for approximately one hour, and any insoluble material was removed by repeated centrifugation at 21,000 × g for 10 min. […] Prior to ITC, which was initiated immediately following dialysis, the protein solutions were centrifuged at 17,000 × g and 4 °C for 30 min. Any precipitate was separated from the remaining soluble protein fraction which was quantified by absorption at A280nm and diluted with filtered dialysis buffer immediately before use.
as §2

[10] = 10 µM protein and 10 µM ANS, CBS pH 5.5

SMILES | Kd (NISO [1]) [µM] | IC50 (NISO [1]) | Log10IC50 (NISO [1]) | Hill Slope (NISO [1]) | IC50 (PR10-12 [4]) [µM] | Log10IC50 (PR10-12 [4]) | Kd (PR10-12 [4]) [µM] | IC50 (MLP2) [µM] | Log10IC50 (MLP2) | Kd (MLP2) [µM] | Kd (MLP15 [5]) [µM] | IC50 (MLP15 [5]) | Log10IC50 (MLP15 [5]) | Hill Slope (MLP15 [5]) | other results
COc1ccc2c3c1O[C@H]1[C@@H](O)C=C[C@H]4[C@@H](C2)N(C)CC[C@@]341 [Codeine, codeine] | 24.2 | 28 µM and 28.2 µM | 1.45 ± 0.13 | -0.72 ± 0.13 | 1500 | 3.18 ± 0.36 | 1460 | 203 | 2.31 ± 0.14 | 151 | 931 | 1050 µM | 3.02 ± 0.17 | -0.97 ± 0.13 | ΔH (NISO [2]): -3556 ± 26.07 cal/mol; ΔS (NISO [2]): 13.9 cal/mol/˚K; N (NISO [2]; single-site model): 1.07 ± 0.00547; Kd (NISO [2]; Kd, single-site model): 2000 nM and 2220 nM; ΔH (THS2 [3]): 1868 ± 68.6 cal/mol; ΔS (THS2 [3]): 27.2 cal/mol/˚K; N (THS2 [3]; single-site model): 0.51 ± 0.0145; Kd (THS2 [3]; Kd, single-site model): 26 µM and 26.5 µM; Hill Slope (PR10-10): ~ 0.13 ± 0.35; Kd (PR10-12 [6]): 140 ± 13.6 µM; Kd (PR10-12 [6]; listed as codeine): 140 µM
COc1ccc2c(c1OC)C(=O)O[C@@H]2[C@H]1c2c(cc3c(c2OC)OCO3)CCN1C [Noscapine, noscapine] | 56.7 | 66 µM and 66.1 µM | 1.82 ± 0.07 | -5.05 ± 6.55 | ~4.18 | ~ 0.62 ± 0.17 | ~4.07 | ~40.4 | ~ 1.61 ± 0.07 | ~29.9 | 37.8 | 43 µM and 42.6 µM | 1.63 ± 0.04 | -1.18 ± 0.10 | Kd (THS2 [7]): ~9.66 µM; IC50 (THS2 [7]; IC50, THS2, 10 µM protein and 10 µM ANS, CBS pH 5.5): 14 µM and ~14.3 µM; Log10IC50 (THS2 [7]; THS2, 10 µM protein and 10 µM ANS, CBS pH 5.5): ~ 1.16 ± 0.48; Hill Slope (THS2 [7]; THS2, ANS displacement dose-response fit): ~ -1.13 ± 0.78; IC50 (PR10-4; [10]): ~126 µM; Log10IC50 (PR10-4; [10]): ~ 2.102 ± 0.59; Kd (PR10-4; from average IC50 and PR10-ANS Kd, competitive inhibition assumed, read-out: Estimated Kd): ~116 µM; solubility [8]: 1100 µM (≈ 455 µg/mL); endothermic positive peaks during the initial injections (MLP15 [9]): > 0.2 µcal/s; exothermic heat-change plateau of the final injections (MLP15 [9]): -0.48 µcal/s
